Source: the NIST ThermoML archive (doi:10.1016/j.jct.2009.05.011)

Experiment: mn = molality of the nth substance listed, in mol/kg
Conditions: 101 kPa, Liquid, Vibrating tube method

NCC(=O)N[C@@H](Cc1ccccc1)C(=O)NCC(=O)O [glycyl-L-phenylalanylglycine] + O
Conditions	mass density [kg/m3]
288.15 K, m1 = 0.005986	999.628
288.15 K, m1 = 0.008946	999.888
288.15 K, m1 = 0.01159	1000.12
288.15 K, m1 = 0.01398	1000.33
288.15 K, m1 = 0.01783	1000.66
288.15 K, m1 = 0.02035	1000.89
288.15 K, m1 = 0.02318	1001.13
288.15 K, m1 = 0.0251	1001.3
303.15 K, m1 = 0.00896	996.415
303.15 K, m1 = 0.01148	996.632
303.15 K, m1 = 0.01353	996.804
303.15 K, m1 = 0.01556	996.971
303.15 K, m1 = 0.01814	997.19
303.15 K, m1 = 0.01958	997.317
303.15 K, m1 = 0.02246	997.559
303.15 K, m1 = 0.02447	997.735
313.15 K, m1 = 0.004093	992.563
313.15 K, m1 = 0.00896	992.969
313.15 K, m1 = 0.01149	993.182
313.15 K, m1 = 0.01353	993.351
313.15 K, m1 = 0.01556	993.516
313.15 K, m1 = 0.01761	993.683
313.15 K, m1 = 0.02033	993.916
313.15 K, m1 = 0.02333	994.159
313.15 K, m1 = 0.02522	994.324

NCC(=O)N1CCC[C@H]1C(=O)NCC(=O)O [glycyl-L-prolylglycine] + O
Conditions	mass density [kg/m3]
288.15 K, m1 = 0.02017	1000.83
288.15 K, m1 = 0.0252	1001.26
288.15 K, m1 = 0.02989	1001.66
288.15 K, m1 = 0.0347	1002.07
288.15 K, m1 = 0.04017	1002.54
288.15 K, m1 = 0.04486	1002.93
288.15 K, m1 = 0.04775	1003.19
288.15 K, m1 = 0.05375	1003.69
303.15 K, m1 = 0.02292	997.573
303.15 K, m1 = 0.02697	997.912
303.15 K, m1 = 0.03212	998.333
303.15 K, m1 = 0.03677	998.728
303.15 K, m1 = 0.04242	999.195
303.15 K, m1 = 0.04731	999.598
303.15 K, m1 = 0.05219	1000.01
313.15 K, m1 = 0.02757	994.502
313.15 K, m1 = 0.03212	994.873
313.15 K, m1 = 0.03715	995.286
313.15 K, m1 = 0.04242	995.724
313.15 K, m1 = 0.04731	996.116
313.15 K, m1 = 0.05169	996.482

CC(C)[C@H](NC(=O)CN)C(=O)NCC(=O)O [glycyl-L-valylglycine] + O
Conditions	mass density [kg/m3]
288.15 K, m1 = 0.01862	1000.45
288.15 K, m1 = 0.02808	1001.13
288.15 K, m1 = 0.03769	1001.83
288.15 K, m1 = 0.04662	1002.47
288.15 K, m1 = 0.05168	1002.82
288.15 K, m1 = 0.05581	1003.11
288.15 K, m1 = 0.06152	1003.53
288.15 K, m1 = 0.07369	1004.39
288.15 K, m1 = 0.08031	1004.86
303.15 K, m1 = 0.02786	997.6
303.15 K, m1 = 0.0373	998.253
303.15 K, m1 = 0.04619	998.869
303.15 K, m1 = 0.05567	999.521
303.15 K, m1 = 0.06481	1000.14
303.15 K, m1 = 0.07464	1000.82
303.15 K, m1 = 0.08365	1001.43
303.15 K, m1 = 0.09397	1002.14
313.15 K, m1 = 0.02103	993.668
313.15 K, m1 = 0.02584	993.998
313.15 K, m1 = 0.03709	994.764
313.15 K, m1 = 0.05558	996.017
313.15 K, m1 = 0.06483	996.652
313.15 K, m1 = 0.0741	997.273
313.15 K, m1 = 0.08323	997.9
313.15 K, m1 = 0.09182	998.467
